Here are results for one molecule from BindingDB's records for doi:10.1016/j.ejmech.2013.04.003 (Seoul National University, 2013).

Assay [1] has as its target T1, Transient receptor potential cation channel subfamily V member 1 (Homo sapiens, UniProt Q8NER1). Kind of assay: Antagonist activity at human TRPV1 expressed in CHOK1 cells assessed as inhibition of pH 6 to 6.3-induced activity by FLIPR assay.
The target in assay [2] is T1, Transient receptor potential cation channel subfamily V member 1. Kind of assay: Antagonist activity at human TRPV1 expressed in CHOK1 cells assessed as inhibition of capsaicin-induced activity by FLIPR assay.

T1 sequence (Q8NER1 whole entry): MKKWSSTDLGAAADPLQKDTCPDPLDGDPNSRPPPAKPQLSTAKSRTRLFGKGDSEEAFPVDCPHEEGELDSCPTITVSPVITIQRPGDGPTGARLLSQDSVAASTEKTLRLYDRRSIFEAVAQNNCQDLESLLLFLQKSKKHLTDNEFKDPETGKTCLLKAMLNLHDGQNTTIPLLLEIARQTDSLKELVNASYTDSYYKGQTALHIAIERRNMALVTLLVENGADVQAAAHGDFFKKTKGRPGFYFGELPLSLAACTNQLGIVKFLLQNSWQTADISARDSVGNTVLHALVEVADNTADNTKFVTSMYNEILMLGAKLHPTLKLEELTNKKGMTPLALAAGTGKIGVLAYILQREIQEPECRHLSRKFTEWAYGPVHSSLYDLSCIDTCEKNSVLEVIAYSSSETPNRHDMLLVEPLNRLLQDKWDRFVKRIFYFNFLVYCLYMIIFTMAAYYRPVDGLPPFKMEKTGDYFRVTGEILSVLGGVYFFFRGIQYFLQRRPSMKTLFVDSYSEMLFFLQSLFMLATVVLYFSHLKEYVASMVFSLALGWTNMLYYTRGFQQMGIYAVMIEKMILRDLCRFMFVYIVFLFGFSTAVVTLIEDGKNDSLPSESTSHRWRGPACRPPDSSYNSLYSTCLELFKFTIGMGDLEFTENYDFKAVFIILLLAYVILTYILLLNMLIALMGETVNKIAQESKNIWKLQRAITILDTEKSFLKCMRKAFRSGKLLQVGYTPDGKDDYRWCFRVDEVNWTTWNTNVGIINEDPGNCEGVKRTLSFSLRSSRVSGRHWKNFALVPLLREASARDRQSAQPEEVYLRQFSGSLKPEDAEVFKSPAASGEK

For the molecule `CC(C(=O)NCc1ccc(C(F)(F)F)nc1OCCCOc1ccccc1)c1ccc(NS(C)(=O)=O)c(F)c1` (configuration not stated), the IC50 in assay [1] was found to be 0.161 µM. Further, in assay [2], the Ki was found to be 0.0015 µM.
